Where “and” joins values, the source holds several entries; their conditions need not be identical. Equal values may be shown once.
Tests used:
[1] = system: phospho-S6 Ser235/236 (pS6); experiment: Immunohistochemistry of paired tumor tissues; format: in vivo, human; details: mean (±SD)
[2] = system: Bim; experiment: Immunohistochemistry of tumor tissues; details: for BIM expression immunoscore in post-treatment samples: control 48.6
[3] = Everolimus pharmacokinetic analysis in whole blood; details: for Tmax: NSCLC patients
[4] = system: BCL2L-11 gene; experiment: Gene expression profiling by RNA-Seq, baseline vs post-treatment tumor; format: in vivo, human; details: responder with sarcomatoid NSCLC, 10mg everolimus
[5] = system: resectable non-small cell lung cancer (NSCLC); experiment: Metabolic response on paired 18F-FDG PET/CT; format: in vivo, human; details: for Change in metabolic activity (SUVmax): up to 28 days, control 29.0%; for Change in metabolic activity (SUVmax) / Mean reduction in SUVmax (percent change of initial SUVmax): p=0.014; for Mean reduction in SUVmax (percent change of initial SUVmax): control mean increase of 29%
[6] = Safety: treatment-emergent adverse events; format: in vivo, human
[7] = system: phospho-mTOR Ser2448 (pMTOR); experiment: Immunohistochemistry of paired tumor tissues; format: in vivo, human; details: mean (±SD)
[8] = system: S6; experiment: Immunohistochemistry of paired tumor tissues; format: in vivo, human; details: mean (±SD)
[9] = system: resectable non-small cell lung cancer (NSCLC); experiment: Anatomic response, tumor size; format: in vivo, human
[10] = system: p70S6K; experiment: Immunohistochemistry of paired tumor tissues; format: in vivo, human; details: mean (±SD)
[11] = system: phospho-4E-BP1 Thr37/46 (p4E-BP1); experiment: Immunohistochemistry of paired tumor tissues; format: in vivo, human; details: mean (±SD)
[12] = system: pS6/S6; experiment: Immunohistochemistry of paired tumor tissues; format: in vivo, human; details: mean (±SD)
[13] = system: phospho-Akt Ser473 (pAKT); experiment: Immunohistochemistry of tumor tissues; format: in vivo, human
[14] = system: phospho-eIF4E Ser209 (pe1f4e); experiment: Immunohistochemistry of paired tumor tissues; format: in vivo, human; details: mean (±SD)
[15] = dose of everolimus 5, listed as Everolimus
[16] = dose of everolimus 10, listed as Everolimus
[17] = dose of everolimus 10, mean (±SD)
[18] = human, whole blood, oral, 10 mg

CO[C@H]1C[C@@H]2CC[C@@H](C)[C@@](O)(O2)C(=O)C(=O)N2CCCC[C@H]2C(=O)O[C@H]([C@H](C)C[C@@H]2CC[C@@H](OCCO)[C@H](OC)C2)CC(=O)[C@H](C)/C=C(\C)[C@@H](O)[C@@H](OC)C(=O)[C@H](C)C[C@H](C)/C=C/C=C/C=C/1C [everolimus]
pS6 percent change in immunoscore, post-treatment relative to baseline ([1]; dose of everolimus 5): −61.57%
pS6 percent change in immunoscore, post-treatment relative to baseline [1, 15]: −61.57 (± 35.8) %
pS6 percent change in immunoscore, post-treatment relative to baseline ([1]; dose of everolimus 10): −47.21%
pS6 percent change in immunoscore, post-treatment relative to baseline [1, 16]: −47.21 (± 44.96) %
BIM expression immunoscore in post-treatment samples ([2]; 5mg everolimus): 84.3
BIM expression immunoscore in post-treatment samples ([2]; 10mg everolimus): 80.5
Bim percent change in immunoscore, post-treatment relative to baseline [2, 17]: −21.76 (± 60.07) %
BIM expression immunoscore, treated compared to control patients ([2]; post-treatment samples, treated patients vs control): ~2 fold
Tmax ([3]; 5 mg daily (n=12), whole blood): 2 (1 – 2) hr.
Day 21 Cmax ([3]; 10 mg daily (n=7), whole blood): 51.5 ± 9.9 ng/mL
Tmax ([3]; 10 mg daily (n=7), whole blood): 2 (1 – 2) hr.
Accumulation ([3]; at either dose level (5mg, 10mg), days 8 and 21 vs day 1): no significant accumulation
concentration at 8 day ([3]; human, whole blood, oral, 5 mg): 6.3 ± 2.9 ng/mL
concentration at 21 day ([3]; human, whole blood, oral, 5 mg): 5.7 ± 2.3 ng/mL
half-life ([3]; human, whole blood, oral, 5 mg): 1590 min
Cmax ([3]; human, whole blood, oral, 5 mg, Day 1 Cmax, 5 mg daily (n=12), whole blood): 29.2 ± 9.9 ng/mL
Cmax ([3]; human, whole blood, oral, 5 mg, Day 8 Cmax, 5 mg daily (n=12), whole blood): 42.1 ± 17.2 ng/mL
AUC(0-t) ([3]; human, whole blood, oral, 5 mg, Day 21 AUC0-24, 5 mg daily (n=12), whole blood): 205 ± 87.4 ng·h/mL
concentration at 8 day [3, 18]: 17.8 ± 7.6 ng/mL
concentration at 21 day [3, 18]: 13.7 ± 9.2 ng/mL
AUC(0-t) ([3]; human, whole blood, oral, 10 mg, Day 8 AUC0-24, 10 mg daily (n=7), whole blood): 579 ± 186 ng·h/mL
AUC(0-t) ([3]; human, whole blood, oral, 10 mg, Day 21 AUC0-24, 10 mg daily (n=7), whole blood): 506 ± 208 ng·h/mL
Increase in BCL2L-11 gene (BIM) expression, post-treatment vs baseline sample [4]: 6 fold
Change in metabolic activity (SUVmax) ([5]; 5mg cohort): −21%
Partial metabolic response (PMR) rate, PERCIST ([5]; 5mg everolimus group): 36%
Stable metabolic disease (SMD) rate, PERCIST ([5]; 5mg everolimus group): 64%
Change in metabolic activity (SUVmax) ([5]; 10mg cohort): −24%
Partial metabolic response (PMR) rate, PERCIST ([5]; 10mg everolimus group): 50%
Stable metabolic disease (SMD) rate, PERCIST ([5]; 10mg everolimus group): 50%
Reduction in mean metabolic activity, RAS mutant tumors ([5]; RAS mutant tumors treated with everolimus (10mg), control 88% increase, p=0.218): 30%
Mean reduction in SUVmax (percent change of initial SUVmax) ([5]; everolimus 5mg): 21%
Mean reduction in SUVmax (percent change of initial SUVmax) ([5]; everolimus 10mg): 24%
Reduction in metabolic activity, non-RAS mutant tumors ([5]; everolimus (10mg) group, control 12% increase, p=0.039): 21%
Reduction in SUVmax, single patient (near complete metabolic response) ([5]; one patient, sarcomatoid NSCLC, 10mg everolimus for 3 weeks): 74%
MRSA Bacteremia, Grade 3 ([6]; CTCAE version 3, patients treated with everolimus (5 or 10 mg daily)): 1
Median length of hospital stay (LOS) after resection ([6]; in vivo): 5 days
Range of length of hospital stay (LOS) after resection ([6]; in vivo): 3 to 43 days
pMTOR percent change in immunoscore, post-treatment relative to baseline ([7]; dose of everolimus 5): 30 (± 153.95) %
pMTOR percent change in immunoscore, post-treatment relative to baseline ([7]; dose of everolimus 10): −63.82 (± 51.3) %
S6 percent change in immunoscore, post-treatment relative to baseline ([8]; dose of everolimus 5): −13.7%
S6 percent change in immunoscore, post-treatment relative to baseline [8, 15]: −13.69 (± 144.05) %
S6 percent change in immunoscore, post-treatment relative to baseline ([8]; dose of everolimus 10): −77.0% and −77.03%
S6 percent change in immunoscore, post-treatment relative to baseline [8, 16]: −77.03 (± 16.02) %
Patients achieving SD (RECIST) ([9]; 5mg everolimus): 82%
Patients with best response of PD (RECIST) ([9]; 5mg everolimus): 18%
Change in tumor size ([9]; 10mg cohort, control 10.1%, p=0.047): −11.6%
Patients meeting RECIST criteria for partial response ([9]; 10mg everolimus group): 9%
Patients with SD (RECIST) ([9]; 10mg everolimus group): 91%
Tumor shrinkage in partial response ([9]; 10mg everolimus group, partial response): 30%
p70s6k percent change in immunoscore, post-treatment relative to baseline ([10]; dose of everolimus 5): 137.14 (± 442.07) %
p70s6k percent change in immunoscore, post-treatment relative to baseline ([10]; dose of everolimus 10): −78.62 (± 22.79) %
p4E-BP1 percent change in immunoscore, post-treatment relative to baseline ([11]; dose of everolimus 5): 150 (±NA) %
p4E-BP1 percent change in immunoscore, post-treatment relative to baseline ([11]; dose of everolimus 10): −78.75 (± 14.36) %
pS6/S6 percent change, post-treatment relative to baseline ([12]; dose of everolimus 5): −100 (±NA) %
pS6/S6 percent change, post-treatment relative to baseline ([12]; dose of everolimus 10): 128.57 (± 219.26) %
Unmatched mean immunoscore, nuclear pAKT staining, post-treatment ([13]; 5 mg cohort, baseline 0.3): 15
Unmatched mean immunoscore, cytoplasmic pAKT staining, post-treatment ([13]; 5 mg cohort, baseline 13.1): 47.5
Unmatched mean immunoscore, nuclear pAKT staining, post-treatment ([13]; 10 mg cohort, baseline 0.01): 4.4
Unmatched mean immunoscore, cytoplasmic pAKT staining, post-treatment ([13]; 10 mg cohort, baseline 0.42): 2.34
PAKT Nuclear percent change in immunoscore, post-treatment relative to baseline [13, 17]: 0 (± 0) %
pe1f4e percent change in immunoscore, post-treatment relative to baseline ([14]; dose of everolimus 5): 2.78 (± 5.56) %
pe1f4e percent change in immunoscore, post-treatment relative to baseline ([14]; dose of everolimus 10): −27.13 (± 42.17) %

Reference: paper PMC4401630 (Clinical cancer research : an official journal of the …, 2015)
